{"source": "patent US20260193311A1", "about": "“METHODS AND COMPOSITIONS FOR STIMULATION OF CHIMERIC ANTIGEN RECEPTOR T CELLS WITH HAPTEN LABELLED CELLS” (Seattle Children's Hospital (dba Seattle Children's …, priority 2018, published 2026)", "key": {"[1]": {"tested_on": "CD19+K562 cells (hapten-labeled)", "assay": "cytokine release assay of antiFL CAR T cells against hapten-labelled cells", "format": "cell-based", "conditions": "target cells prepared with 5 μM FL-DHPE", "protocol": "Hapten-labeled cells were prepared. CD19^+K562 cells were incubated either overnight with 5 μM FL-DHPE or for 20 min with an CD19 antibody labeled with FITC. The hapten-labeled cells were incubated with either one of two antiFL CAR T cells (FITC-E2 scFv, or 4M5.3 scFv). […] Hudecek M, et al., (2013) Clin Cancer Res. 19:3153-64, which is incorporated by reference in its entirety.\nThe levels of cytokines released by the antiFL CAR T cells were determined. […] The levels of released IFN-7, and TNF-α were lower for hapten-labeled cells contacted with the antiFL(4M5.3) CART cell. Also, there was a trend for hapten-labeled cells prepared with FL-DHPE inducing higher levels of cytokine release compared to hapten-labeled cells prepared with an CD19 antibody labeled with FITC."}, "CD19+ Raji cells": {"tested_on": "CD19+ Raji cells", "assay": "flow cytometry for presence of FL on hapten-labeled cells", "format": "cell-based", "protocol": "Hapten-labeled cells were prepared by either attaching the hapten, fluorescein (FL), to the cells via an integrated phospholipid or via an antibody. CD19+ Raji cells (lymphoma cell line) were incubated either overnight with 5 μM FL-DHPE (FIG. 3B), or for 20 min with an antiCD19 antibody labeled with fluorescein isothiocyanate (FITC). The cells were washed, stained, and analyzed by flow cytometry for the presence of FL. […] The levels of FL were higher for cells treated with FL-DHPE compared to cells treated with the antiCD19 antibody (FIG. 4A). This was consistent with different tethering techniques providing different levels of hapten on the surface of a cell."}}}
{"smiles": "CCCCCCCCCCCCCCCC(=O)OCC(COP(=O)(O)OCCNC(=S)Nc1ccc2c(c1)C(=O)OC21c2ccc(O)cc2Oc2cc(O)ccc21)OC(=O)CCCCCCCCCCCCCCC", "note": "(stereo not drawn) [FL-DHPE, N-(Fluorescein-5-Thiocarbamoyl)-1,2-Dihexadecanoyl-sn-Glycero-3-Phosphoethanolamine]", "values": [{"measurement": "cytokine release compared to hapten-labeled cells prepared with CD19 antibody labeled with FITC (trend)", "setting": "[1]", "result": "higher levels"}, {"measurement": "presence of FL, shift compared to untreated control cells", "setting": "CD19+ Raji cells; 5 μM FL-DHPE overnight", "result": "positive shift"}, {"measurement": "levels of FL compared to cells treated with the antiCD19 antibody", "setting": "CD19+ Raji cells; 5 μM FL-DHPE overnight vs antibody 20 min", "result": "higher"}]}
